The supplement of paper PMC10307832

Legend:
Assay in all cases: relative viability (nuclei count vs DMSO), 5 days (fraction); higher = more cells survive
[1] = compound: C1COCCN1C2=NC(=NC3=C2OC4=C3C=CC=N4)C5=CC(=CC=C5)NC(=O)C6=CN=C(C=C6)N + C[C@]1(O)C[C@@H](c2nc(-c3ccc4ccc(-c5ccccc5)nc4c3)c3c(N)nccn32)C1 [Linsitinib] (partner 1 µM)
Outline: (§1)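 Relative viability equals treated-well nuclei counts divided by vehicle-well nuclei counts. Counts came from 4× images of lung cancer cell lines grown in 1536-well plates for 5 days after pin-tool dosing on the day after seeding. Dosing used one drug alone or a fixed anchor-drug dose plus five library-drug doses (not always all listed) in √10 steps, and values are medians of duplicate plates.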

[2] = compound: Nc1ccccc1NC(=O)c1ccc(CNC(=O)OCc2cccnc2)cc1 [Entinostat] + C[C@]1(O)C[C@@H](c2nc(-c3ccc4ccc(-c5ccccc5)nc4c3)c3c(N)nccn32)C1 [Linsitinib] (partner 1 µM)
Outline: as §1

[3] = compound: Nc1ccccc1NC(=O)c1ccc(CNC(=O)OCc2cccnc2)cc1 [Entinostat] + Cc1cc(Nc2cc(N3CCN(C)CC3)nc(Sc3ccc(NC(=O)C4CC4)cc3)n2)n[nH]1 [Tozasertib] (partner 0.1 µM)
Outline: as §1

[4] = compound: C1COCCN1C2=NC(=NC3=C2OC4=C3C=CC=N4)C5=CC(=CC=C5)NC(=O)C6=CN=C(C=C6)N + COc1cc2c(Oc3ccc(NC(=O)C4(C(=O)Nc5ccc(F)cc5)CC4)cc3F)ccnc2cc1OCCCN1CCOCC1 [Foretinib] (partner 0.25 µM)
Outline: as §1

| Cell Line | relative viability ([1]; first compound 0.02 µM) | relative viability ([1]; first compound 0.06325 µM) | relative viability ([1]; first compound 0.2 µM) | relative viability ([1]; first compound 0.6325 µM) | relative viability ([1]; first compound 2 µM) | relative viability ([2]; first compound 0.02 µM) | relative viability ([2]; first compound 0.06325 µM) | relative viability ([2]; first compound 0.2 µM) | relative viability ([2]; first compound 0.6325 µM) | relative viability ([2]; first compound 2 µM) | relative viability ([3]; first compound 0.02 µM) | relative viability ([3]; first compound 0.06325 µM) | relative viability ([3]; first compound 0.2 µM) | relative viability ([3]; first compound 0.6325 µM) | relative viability ([3]; first compound 2 µM) | relative viability ([4]; first compound 0.02 µM) | relative viability ([4]; first compound 0.06325 µM) | relative viability ([4]; first compound 0.2 µM) | relative viability ([4]; first compound 0.6325 µM) | relative viability ([4]; first compound 2 µM) |
| --- | --- | --- | --- | --- | --- | --- | --- | --- | --- | --- | --- | --- | --- | --- | --- | --- | --- | --- | --- | --- |
| HCC-44 | 0.616 | 0.846 | 0.711 | 0.606 | 0.331 | 0.676 | 0.474 | 0.357 | 0.27 | 0.197 | 0.898 | 0.581 | 0.553 | 0.309 | 0.221 |  |  |  |  |  |
| HCC-78 | 0.425 | 0.329 | 0.569 | 0.492 | 0.415 | 0.496 | 0.395 | 0.306 | 0.156 | 0.151 | 0.577 | 0.432 | 0.248 | 0.241 | 0.173 | 0.466 | 0.553 | 0.587 | 0.531 | 0.425 |
| HCC-366 | 0.918 | 0.82 | 0.574 | 0.472 | 0.207 | 0.859 | 0.758 | 0.461 | 0.175 | 0.0447 | 0.0983 | 0.0503 | 0.0518 | 0.0518 | 0.0252 | 0.946 | 0.931 | 0.913 | 0.892 | 0.714 |
| HCC-827 | 0.924 | 0.929 | 0.968 | 1.01 | 0.988 | 0.958 | 0.883 | 0.722 | 0.582 | 0.421 | 0.425 | 0.406 | 0.335 | 0.302 | 0.184 | 1.01 | 1.06 | 0.99 | 1.08 | 0.97 |
| HOP-62 | 0.675 | 0.967 | 0.825 | 0.934 | 0.773 | 0.743 | 1.01 | 0.711 | 0.403 | 0.266 | 0.355 | 0.312 | 0.304 | 0.228 | 0.152 | 1.12 | 1.2 | 1.12 | 1.02 | 0.568 |
| IA-LM | 0.439 | 0.696 | 0.526 | 0.565 | 0.327 | 0.645 | 0.774 | 0.785 | 0.628 | 0.543 |  |  |  |  |  | 0.999 | 1.38 | 0.867 | 0.922 | 0.326 |
| LC-2-ad | 0.836 | 0.866 | 0.837 | 0.826 | 0.589 | 0.769 | 0.831 | 0.7 | 0.489 | 0.219 | 0.425 | 0.367 | 0.368 | 0.299 | 0.242 | 0.858 | 0.984 | 0.977 | 1.06 | 0.9 |
| LCLC-97TM1 |  | 0.199 | 0.174 | 0.232 | 0.22 | 0.158 | 0.147 | 0.139 | 0.165 | 0.14 | 0.218 | 0.213 | 0.192 | 0.177 | 0.167 | 0.974 | 0.964 | 0.931 | 1.04 | 0.825 |
| LCLC-103H | 1.05 | 1.15 | 1.21 | 1.03 | 0.978 | 1.07 | 1.12 | 0.937 | 0.931 | 0.715 | 0.495 | 0.35 | 0.366 | 0.308 | 0.214 | 0.872 | 0.777 | 0.789 | 0.643 | 0.474 |
| LK-2 | 0.464 | 0.797 | 0.625 | 0.624 | 0.395 | 0.522 | 0.59 | 0.639 | 0.459 | 0.274 | 0.151 | 0.176 | 0.168 | 0.159 | 0.168 | 1.34 | 1.37 | 1.35 | 0.797 | 0.598 |
| LOU-NH91 | 0.893 | 0.998 | 0.989 | 0.92 | 0.769 | 0.911 | 1.02 | 0.95 | 0.816 | 0.714 | 0.736 | 0.671 | 0.616 | 0.523 | 0.344 | 0.946 | 0.952 | 0.901 | 0.925 | 0.845 |
| NCI-H522 |  |  |  |  |  |  |  |  |  |  | 0.576 | 0.509 | 0.516 | 0.48 | 0.371 |  |  |  |  |  |
| NCI-H1299 | 0.922 | 1.13 | 0.953 | 1 | 0.805 | 0.962 | 0.914 | 0.95 | 0.754 | 0.601 |  |  |  |  |  | 1.01 | 1.08 | 1.1 | 1.05 | 0.806 |
| NCI-H1563 | 1.22 | 1.32 | 1.22 | 0.901 | 0.884 | 1.14 | 1.2 | 1.09 | 0.897 | 0.769 |  |  |  |  |  | 0.833 | 0.911 | 0.862 | 0.856 | 0.823 |
| NCI-H1623 |  |  |  |  |  |  |  |  |  |  | 0.498 | 0.442 | 0.373 | 0.352 | 0.305 | 0.791 | 0.801 | 0.954 | 0.822 | 0.648 |
| NCI-H1648 |  |  |  |  |  |  |  |  |  |  | 0.566 | 0.483 | 0.414 | 0.411 | 0.341 |  |  |  |  |  |
| NCI-H1650 |  |  |  |  |  |  |  |  |  |  | 0.336 | 0.366 | 0.332 | 0.223 | 0.204 | 1.12 | 1.15 | 0.974 | 1.22 | 0.76 |
| NCI-H1703 | 0.412 | 0.567 | 0.747 | 0.757 | 0.381 | 0.883 | 0.805 | 0.857 | 0.919 | 0.582 |  |  |  |  |  | 0.284 | 0.413 | 0.371 | 0.305 | 0.285 |
| NCI-H1792 | 0.608 | 0.508 | 0.565 | 0.257 | 0.468 | 0.476 | 0.502 | 0.392 | 0.276 | 0.153 |  |  |  |  |  |  |  |  |  |  |
| NCI-H2170 |  |  |  |  |  |  |  |  |  |  | 0.685 | 0.677 | 0.461 | 0.391 | 0.172 | 0.953 | 0.843 | 1.05 | 1.07 | 0.68 |
| NCI-H2342 |  |  |  |  |  |  |  |  |  |  | 0.465 | 0.429 | 0.377 | 0.372 | 0.333 | 0.981 | 1.24 | 1.02 | 1.01 | 0.88 |
| SW 900 |  |  |  |  |  |  |  |  |  |  | 0.573 | 0.62 | 0.515 | 0.282 | 0.206 | 0.944 | 0.93 | 0.751 | 1.5 | 0.735 |
